According to PubChem BioAssay AID1259408 (Genetic Toxicology Data Bank (GENE-TOX), 2018):
Activity calls are given as the source filed them. The rule behind the calls is not given here.

System: GENE-TOX genotoxicity assays, various organisms and cells
Assay: GENE-TOX mutagenicity studies
Settings: for call: Assay Type: In vivo carcinogenicity studies, Assay Code: CCG+
[1] = Species/Cell Type: Salmonella typhimurium (one or more of the five standard strains: TA98, TA100, TA1535, TA1537, and TA1538), Assay Type: Histidine reverse gene mutation, Ames assay, Assay Code: SAL+, Evaluation Type: Evaluation A (Pre-1980)
[2] = Species/Cell Type: Bacillus subtilis (H17 vs M45), Assay Type: Rec-assay, spot test, DNA effects (bacterial DNA repair), Assay Code: REW+, Evaluation Type: Evaluation A (Pre-1980)
[3] = Species/Cell Type: Allium cepa, Assay Type: Chromosome aberrations, Assay Code: ALC+, Evaluation Type: Evaluation A (Pre-1980)
[4] = Species/Cell Type: Drosophila melanogaster, Assay Type: Sex-linked recessive lethal gene mutation, Assay Code: SRL+, Evaluation Type: Evaluation A (Pre-1980)
[5] = Species/Cell Type: Human, Assay Type: Sister-chromatid exchange (SCE) in vitro, Assay Code: SC1+, Evaluation Type: Evaluation B (Post-1980)
[6] = Species/Cell Type: Nonhuman, Evaluation Type: Evaluation A (Pre-1980)
[7] = Species/Cell Type: Nonhuman, Assay Type: Sister-chromatid exchange (SCE) in vitro, Assay Code: SC2+D, Dose Response: With dose response, Evaluation Type: Evaluation B (Post-1980)
[8] = Species/Cell Type: Nonhuman, Assay Type: Sister-chromatid exchange (SCE) in vivo, Assay Code: SC3+, Evaluation Type: Evaluation B (Post-1980)
[9] = Species/Cell Type: Salmonella typhimurium, Assay Type: Forward and reverse gene mutation, host-mediated assay, Assay Code: HMA+, Evaluation Type: Evaluation A (Pre-1980)
[10] = Species/Cell Type: Salmonella typhimurium (one or more of the five standard strains: TA98, TA100, TA1535, TA1537, and TA1538), Assay Type: Histidine reverse gene mutation, Ames assay, Assay Code: SALT, Evaluation Type: Evaluation A (Pre-1980)
[11] = Species/Cell Type: Neurospora crassa, Assay Type: Aneuploidy, chromosome aberrations, Assay Code: NEN-, Evaluation Type: Evaluation A (Pre-1980)
[12] = Species/Cell Type: Salmonella typhimurium (one or more of the five standard strains: TA98, TA100, TA1535, TA1537, and TA1538), Assay Type: Histidine reverse gene mutation, Ames assay, Assay Code: SAL+*, Activation: With metabolic activation, Evaluation Type: Evaluation A (Pre-1980)
[13] = Species/Cell Type: Bacillus subtilis (H17 vs M45), Assay Type: Rec-assay, spot test, DNA effects (bacterial DNA repair), Assay Code: REW-, Evaluation Type: Evaluation A (Pre-1980)

Structure (SMILES): COC1=C2C[C@@H](C)C[C@H](OC)[C@H](O)[C@@H](C)/C=C(\C)[C@H](OC(N)=O)[C@@H](OC)/C=C\C=C(/C)C(=O)NC(=CC1=O)C2=O
- mutagenic call (Species/Cell Type: Fischer rat embryo (RLV/1706) cells, Assay Type: Cell transformation, viral enhanced, Assay Code: CTR-, Evaluation Type: Evaluation A (Pre-1980)): inactive; negative

Structure (SMILES): C=C(Cl)CCl
- mutagenic call [1]: active; positive

Structure (SMILES): O=[N+]([O-])[O-].O=[N+]([O-])[O-].[Mn+2]
- mutagenic call [2]: active; positive

Structure (SMILES): CNC(=O)Oc1cccc(C)c1
- mutagenic call (Species/Cell Type: Bacillus subtilis (H17 vs M45T), Assay Type: Rec-assay, spot test, DNA effects (bacterial DNA repair), Assay Code: REX-, Evaluation Type: Evaluation A (Pre-1980)): inactive; negative
- mutagenic call (Species/Cell Type: Escherichia coli WP2, Assay Type: Tryptophan reverse gene mutation, Assay Code: WP2-, Evaluation Type: Evaluation A (Pre-1980)): inactive; negative

Structure (SMILES): CN(C)c1ccc(N(C)C)c2c1C(=O)c1c(O)ccc(O)c1C2=O
- mutagenic call [1]: active; positive

Structure (SMILES): [Cl][Pt-2]([Cl])([Cl])([Cl])([Cl])[Cl]
- mutagenic call [2]: active; positive

Structure (SMILES): COc1cc2c(c3oc(=O)c4c(c13)CCC4=O)[C@H]1[C@@H](O2)O[C@@H](Cl)[C@@H]1Cl
- mutagenic call [1]: active; positive

Structure (SMILES): CCOP(=O)(NC(C)C)Oc1ccc(SC)c(C)c1 (stereo unspecified)
- mutagenic call (Species/Cell Type: Nonhuman, Assay Type: Sister-chromatid exchange (SCE) in vitro, Assay Code: SC2-, Evaluation Type: Evaluation B (Post-1980)): inactive; negative

Structure (SMILES): Cc1cc(=O)oc2cc(O)ccc12
- mutagenic call [3]: active; positive

Structure (SMILES): BrCCBr
- mutagenic call (Species/Cell Type: Aspergillus nidulans, Assay Type: Forward gene mutation, Assay Code: ASF+, Evaluation Type: Evaluation A (Pre-1980)): active; positive
- mutagenic call (Species/Cell Type: Chinese hamster ovary (CHO) cells, Assay Type: Forward gene mutation at the HPRT locus, Assay Code: CHO+, Evaluation Type: Evaluation B (Post-1980)): active; positive
- mutagenic call [4]: active; positive
- mutagenic call (Species/Cell Type: Escherichia coli polA (W3119 vs P3478), Assay Type: Rec-assay, DNA effects (bacterial DNA repair), Assay Code: RE1+, Evaluation Type: Evaluation A (Pre-1980)): active; positive
- mutagenic call (Species/Cell Type: Fischer rat embryo (RLV/1706) cells, Assay Type: Cell transformation, viral enhanced, Assay Code: CTR+, Evaluation Type: Evaluation A (Pre-1980)): active; positive
- mutagenic call (Species/Cell Type: Human lymphocytes, Assay Type: Sister-chromatid exchange (SCE) in vitro, Assay Code: SCL+, Evaluation Type: Evaluation B (Post-1980)): active; positive
- mutagenic call [5]: active; positive
- mutagenic call (Species/Cell Type: Human, Sex: Male, Assay Type: Sperm morphology, Assay Code: SPH+, Evaluation Type: Evaluation A (Pre-1980)): active; positive
- mutagenic call (Species/Cell Type: Mammalian polychromatic erythrocytes, Assay Type: Micronucleus test, chromosome aberrations, Assay Code: MNTT, Evaluation Type: Evaluation B (Post-1980)): no conclusion
- mutagenic call (Species/Cell Type: Mouse germ cells, Sex: Male, Assay Type: Unscheduled DNA synthesis (UDS) in vivo, DNA effects, Assay Code: UDT-, Evaluation Type: Evaluation A (Pre-1980)): inactive; negative
- mutagenic call (Species/Cell Type: Mouse lymphoma (L5178Y) cells, Assay Type: Forward gene mutation at the thymidine kinase (TK) locus, chromosome aberrations, Assay Code: L51+, Evaluation Type: Evaluation A (Pre-1980)): active; positive
- mutagenic call (Species/Cell Type: Neurospora crassa, Assay Type: Forward gene mutation, Assay Code: NEF+, Evaluation Type: Evaluation A (Pre-1980)): active; positive
- call [6]: active; positive
- mutagenic call [7]: active; positive
- mutagenic call [8]: active; positive
- mutagenic call (Species/Cell Type: Plant, Assay Type: Micronucleus test, chromosome aberrations, Assay Code: MNP+, Evaluation Type: Evaluation A (Pre-1980)): active; positive
- mutagenic call (Species/Cell Type: Saccharomyces cerevisiae, Assay Type: Mitotic recombination or gene conversion, Assay Code: YEC+, Evaluation Type: Evaluation A (Pre-1980)): active; positive
- mutagenic call (Species/Cell Type: Salmonella typhimurium, Assay Type: Forward and reverse gene mutation, body fluid assay, Assay Code: BFUT, Evaluation Type: Evaluation A (Pre-1980)): no conclusion
- mutagenic call [9]: active; positive
- mutagenic call (Species/Cell Type: Syrian hamster embryo (SA7/SHE) cells, Assay Type: Cell transformation, viral enhanced, Assay Code: CT7+, Evaluation Type: Evaluation A (Pre-1980)): active; positive
- mutagenic call (Species/Cell Type: Tradescantia species, Assay Type: Chromosome aberrations, Assay Code: TRC+D, Dose Response: With dose response, Evaluation Type: Evaluation A (Pre-1980)): active; positive
- mutagenic call (Species/Cell Type: Tradescantia species, Assay Type: Gene mutation, Assay Code: TRM+D, Dose Response: With dose response, Evaluation Type: Evaluation A (Pre-1980)): active; positive

Structure (SMILES): Nc1ccc2cc3ccccc3nc2c1
- mutagenic call (Species/Cell Type: Mouse (BALB/c-3T3) cells, Assay Type: Cell transformation, Assay Code: CTB-, Evaluation Type: Evaluation A (Pre-1980)): inactive; negative

Structure (SMILES): Cc1ccc(N=Nc2ccc(N(C)C)cc2)cc1
- mutagenic call (Species/Cell Type: Rat primary hepatocytes, Assay Type: Unscheduled DNA synthesis (UDS) in vitro, DNA effects, Assay Code: UDP-, Evaluation Type: Evaluation A (Pre-1980)): inactive; negative

Structure (SMILES): N
- mutagenic call (Species/Cell Type: Drosophila melanogaster, Assay Type: Sex-linked recessive lethal gene mutation, Assay Code: SRLT, Evaluation Type: Evaluation A (Pre-1980)): no conclusion

Structure (SMILES): O=C(CCN1CCCCC1)c1ccc2c(c1)OCO2
- mutagenic call [9]: active; positive

Structure (SMILES): CCCCCC(=O)c1c(O)cc2c(c1O)C(=O)c1c(O)cc(O)cc1C2=O
- mutagenic call [10]: no conclusion

Structure (SMILES): Cc1ccc(N)cc1N
- mutagenic call [4]: active; positive
- mutagenic call (Species/Cell Type: Mouse, Sex: Male, Assay Type: Sperm morphology, Assay Code: SPI-, Evaluation Type: Evaluation A (Pre-1980)): inactive; negative
- mutagenic call [11]: inactive; negative
- call [6]: active; positive
- mutagenic call [8]: active; positive
- mutagenic call [12]: active; positive
- mutagenic call (Species/Cell Type: Syrian hamster embryo (SHE) cells, Assay Type: Cell transformation, clonal assay, Assay Code: CTCT, Evaluation Type: Evaluation A (Pre-1980)): no conclusion

Structure (SMILES): NC(=O)N1c2ccccc2C2OC2c2ccccc21 (stereo unspecified)
- mutagenic call (Species/Cell Type: Human lymphocytes, Assay Type: Sister-chromatid exchange (SCE) in vitro, Assay Code: SCLT, Evaluation Type: Evaluation B (Post-1980)): no conclusion
- mutagenic call [10]: no conclusion

Structure (SMILES): CCCCCOC(=O)COc1cc(Cl)c(Cl)cc1Cl
- mutagenic call (Species/Cell Type: Saccharomyces cerevisiae, Assay Type: Mitotic recombination or gene conversion, Assay Code: YEC-, Evaluation Type: Evaluation A (Pre-1980)): inactive; negative

Structure (SMILES): COc1ccc2nc3cc(Cl)ccc3c(NCCCNCCCl)c2n1
- mutagenic call (Species/Cell Type: Chinese hamster ovary (CHO) cells, Assay Type: Forward gene mutation at the HPRT locus, Assay Code: CHO+D, Dose Response: With dose response, Evaluation Type: Evaluation A (Pre-1980)): active; positive

Structure (SMILES): Nc1cc2c(cn1)[nH]c1ccccc12
- mutagenic call [5]: active; positive
- mutagenic call [7]: active; positive

Structure (SMILES): Cc1cccc(N(C)C(=S)Oc2ccc3ccccc3c2)c1
- mutagenic call [11]: inactive; negative

Structure (SMILES): CNc1nc2c(c(=O)n(C)c(=O)n2C)n1C
- mutagenic call [3]: active; positive

Structure (SMILES): CC1CC2OC(/C=C/C=C/C=C/C=C/C=C/C(O)=C3\C(=O)C(C(C)C)N(C)C3=O)C(O)C2O1 (stereo unspecified)
- mutagenic call [13]: inactive; negative

Structure (SMILES): COc1cc2c3c(cc(C)c2c2ccccc12)C(=O)CC3
- mutagenic call [12]: active; positive

Structure (SMILES): Cc1cccc2c1ccc1c3c(ccc12)C(=O)CC3
- mutagenic call [10]: no conclusion

Structure (SMILES): CCCCNC(=O)NS(=O)(=O)c1ccc(C)cc1
- mutagenic call (Species/Cell Type: Mammalian polychromatic erythrocytes, Assay Type: Micronucleus test, chromosome aberrations, Assay Code: MNT+, Evaluation Type: Evaluation A (Pre-1980)): active; positive
- mutagenic call (Species/Cell Type: Nonhuman, Assay Type: Sister-chromatid exchange (SCE) in vivo, Assay Code: SC3+D, Dose Response: With dose response, Evaluation Type: Evaluation B (Post-1980)): active; positive

Structure (SMILES): [Cl][Fe]([Cl])[Cl]
- mutagenic call [13]: inactive; negative

Structure (SMILES): Nc1c2ccccc2nc2ccccc12
- mutagenic call (Species/Cell Type: Human diploid fibroblasts, Assay Type: Unscheduled DNA synthesis (UDS) in vitro, DNA effects, Assay Code: UDH-, Evaluation Type: Evaluation A (Pre-1980)): inactive; negative
- mutagenic call (Species/Cell Type: Nonhuman, Assay Type: Sister-chromatid exchange (SCE) in vitro, Assay Code: SC2+, Evaluation Type: Evaluation B (Post-1980)): active; positive
- mutagenic call [1]: active; positive

Structure (SMILES): C1CN(P2(N3CC3)=NP(N3CC3)(N3CC3)=NP(N3CC3)(N3CC3)=N2)CCO1 (stereo unspecified)
- mutagenic call (Species/Cell Type: Human lymphocytes or leukocytes, Assay Type: Chromosome aberrations in vitro, Assay Code: CY7+, Evaluation Type: Evaluation A (Pre-1980)): active; positive
- mutagenic call (Species/Cell Type: Human lymphocytes, Assay Type: Sister-chromatid exchange (SCE) in vitro, Assay Code: SCL+D, Dose Response: With dose response, Evaluation Type: Evaluation B (Post-1980)): active; positive
- mutagenic call (Species/Cell Type: Human, Assay Type: Sister-chromatid exchange (SCE) in vitro, Assay Code: SC1+D, Dose Response: With dose response, Evaluation Type: Evaluation B (Post-1980)): active; positive
- mutagenic call [7]: active; positive
- mutagenic call (Species/Cell Type: Rodents, Sex: Male, Assay Type: Dominant lethal test, Assay Code: DLT+, Evaluation Type: Evaluation A (Pre-1980)): active; positive
